Data on eleven compounds can be found in patent US20260274814A1, “THIENYL COMPOUNDS FOR THE TREATMENT OF A CENTRAL NERVOUS SYSTEM DISEASE OR DISORDER” (Coreterra Therapeutics, Inc., priority 2023, published 2026).

The assay deals with mice. Description: Neuropharmacological Assay (SmartCube): automated behavioral signature of compound-treated mice compared with a database of reference drug classes. In kind it is in vivo. To be noted: for AD / AG / AN / AP / AX / CE / MS / PS / SH / UK / HL: probability that activity matches this class of agents, 3.0 mg/kg i.p., 15 min before test. The text has this: Neurosci. 2011 Sep. 9; 5: 103 (doi: 10.3389/fnins.2011.00103) (“Roberds”). As reported in Roberds, because psychiatric diseases generally result from disorders of cell-cell communication or circuitry, intact systems are useful in detecting improvement in disease-relevant endpoints. These endpoints are typically behavioral in nature, often requiring human observation and interpretation. To facilitate testing of multiple compounds for behavioral effects relevant to psychiatric disease, PsychoGenics, Inc. (Tarrytown, NY, “PGI”) developed SmartCube™ an automated system in which behaviors of compound-treated mice are captured by digital video and analyzed with computer algorithms. (D. Brunner et al. Drug Discov. Today 2002, 7:S107-S112). PGI Analytical Systems uses data from SmartCube™ to compare the behavioral signature of a test compound to a database of behavioral signatures obtained using a large set of diverse reference compounds. (The composition of the database as well as validation of the method is further described in Roberds). In this way, the neuropharmacological effects of a test compound can be predicted by similarity to major classes of compounds, such as antipsychotics, anxiolytics and antidepressants.
The SmartCube™ system produces an activity signature indicating the probability that the activity of the test compound at the administered dose matches a given class of neuropharmacological agents. (See, e.g., Roberds, FIGS. 2 and 3). The test compound is simultaneously compared against multiple classes of agents; thus, a separate probability is generated for each behavioral effect measured (e.g., anxiolytic activity, analgesic activity, etc.). In table 2 below, these probabilities are reported for each behavioral effect measured as described in Table 1 below.
Provided compounds were dissolved in a mixture of Pharmasolve™ (N-methyl-2-pyrrolidone), polyethylene glycol and propylene glycol, and were injected i.p. 15 min. before the behavioral test. For each compound, injections were administered at 3 different doses. For each behavioral effect measured, results for the 3.0 mg/kg dose are presented. The potency of many of the compounds in the table was also determined in the SmartCube™ system. Test compounds were routinely examined at dose levels of 0.3, 1, 3 and 10 mg per kg (mpk), although the dose range was increased or decreased, if necessary, to obtain a full dose response curve. A compound's minimal effective dose (MED) is a measure of the compound's potency. The MED was defined as the dose (in mpk) having 45% or more total activity in SmartCube. If only one dose was tested, that dose is shown in the MED column of Table 2 even though the dose is not known to be the MED.

[1] abbreviates: dose having 45% or more total activity in SmartCube, i.p., if only one dose was tested, that dose is shown.
Setting [2] is: dose having 45% or more total activity in SmartCube, i.p., if only one dose was tested, that dose is shown, hydrochloride.

Counter-ions that a name gives are not always drawn.

Turning to `CNC1CCc2c(sc(C)c2C)C1` (single isomer, unassigned) [Compound 43, N, 2,3-trimethyl-4,5,6,7-tetrahydrobenzothiophen-6-amine hydrochloride], the AD entry is recorded as “++++ (≥74%)”, the AG result is “ND (^ <4%)”, the AN entry was “ND (^ <4%)” and the AP entry is on record as “ND (^ <4%)”. The AX entry was “ND (^ <4%)”, the CE result is “ND (^ <4%)”, the MS result was “ND (^ <4%)” and the PS result is “ND (^ <4%)”. Moreover, the SH entry is “ND (^ <4%)” and the UK entry was “ND (^ <4%)”. The “MED (minimal effective dose)” value under setting [1] came out at 3.0 mpk. The HL result (hydrochloride, 3 mg/kg) is recorded as “+ (≥4%)”.

With `CNC1CCc2c(C)csc2C1` (single isomer, unassigned) [Compound 44, N, 3-dimethyl-4,5,6,7-tetrahydrobenzothiophen-6-amine hydrochloride], the AG result is listed as “ND (^ <4%)”, the AN entry is “ND (^ <4%)”, the AX result was “ND (^ <4%)” and the CE entry was “ND (^ <4%)”. The HL entry is listed as “ND (^ <4%)”, the MS entry is recorded as “ND (^ <4%)”, the PS entry is “ND (^ <4%)” and the SH result is recorded as “ND (^ <4%)”. Besides, the UK entry is listed as “ND (^ <4%)”. Further, the “MED (minimal effective dose)” value under setting [2] is listed as 1.0 mpk. In addition, under “hydrochloride, 3 mg/kg”, the AD entry was “++ (≥24%)” and the AP result is recorded as “+++ (≥49%)”.

Turning to `CNC1CCc2c(C)csc2C1` (single isomer, unassigned) [Compound 45, N, 3-dimethyl-4,5,6,7-tetrahydrobenzothiophen-6-amine hydrochloride], the AG result is listed as “ND (^ <4%)”, the AN result is reported as “ND (^ <4%)”, the AX result is “ND (^ <4%)” and the CE result is “ND (^ <4%)”. For the same compound, the HL result is recorded as “ND (^ <4%)”, the MS result is listed as “ND (^ <4%)”, the PS entry is “ND (^ <4%)” and the SH result is listed as “ND (^ <4%)”. Further, the UK result is recorded as “ND (^ <4%)”. For the same compound, the “MED (minimal effective dose)” value under setting [2] was 0.1 mpk. Moreover, where the note is “hydrochloride, 3 mg/kg”, the AD result was “++++ (≥74%)” and the AP result is listed as “+ (≥4%)”.

As to `CNC1COc2ccsc2C1` (single isomer, unassigned) [Compound 46, N-methyl-6,7-dihydro-5H-thieno[3,2-b]pyran-6-amine hydrochloride], the AG result was “ND (^ <4%)”, the AN entry is listed as “ND (^ <4%)”, the AP result was “ND (^ <4%)” and the CE entry is “ND (^ <4%)”. The HL entry is recorded as “ND (^ <4%)”, the MS entry is on record as “ND (^ <4%)”, the PS result is recorded as “ND (^ <4%)” and the SH result is “ND (^ <4%)”. For the same compound, the “MED (minimal effective dose)” value under setting [2] is recorded as 10 mpk. For the same compound, under “hydrochloride, 3 mg/kg”, the AD result is “ND (^ <4%)”, the AX result was “+ (≥4%)” and the UK entry is listed as “++ (≥24%)”.

Consider `CNC1COc2ccsc2C1` (single isomer, unassigned) [Compound 47, N-methyl-6,7-dihydro-5H-thieno[3,2-b]pyran-6-amine hydrochloride], for which the AG entry is reported as “ND (^ <4%)”, the AN entry is “ND (^ <4%)”, the AP result is “ND (^ <4%)” and the CE entry is “ND (^ <4%)”. Also, the HL result was “ND (^ <4%)”, the MS entry was “ND (^ <4%)”, the PS result is reported as “ND (^ <4%)” and the SH result was “ND (^ <4%)”. Besides, the “MED (minimal effective dose)” value under setting [2] is listed as 0.3 mpk. Where the note is “hydrochloride, 3 mg/kg”, the AD entry is “++++ (≥74%)”, the AX entry is listed as “ND (^ <4%)” and the UK result is “ND (^ <4%)”.

Consider `CNC1(C)CCc2ccsc2C1` (single isomer, unassigned) [Compound 49, N, 6-dimethyl-5,7-dihydro-4H-benzothiophen-6-amine hydrochloride], for which the AG entry is given as “ND (^ <4%)”, the AN entry was “ND (^ <4%)”, the AP entry is listed as “ND (^ <4%)” and the HL result is given as “ND (^ <4%)”. The PS result is on record as “ND (^ <4%)”, the SH entry is listed as “ND (^ <4%)” and the UK entry is “ND (^ <4%)”. Under setting [2], the “MED (minimal effective dose)” value is reported as 1.0 mpk. Moreover, where the note is “hydrochloride, 3 mg/kg”, the AD result is “++ (≥24%)”, the AX result is “++ (≥24%)”, the CE entry is “+ (≥4%)” and the MS result is recorded as “+ (≥4%)”.

Take `CNC1(C)CCc2ccsc2C1` (single isomer, unassigned) [Compound 50, N, 6-dimethyl-5,7-dihydro-4H-benzothiophen-6-amine hydrochloride]: the AG entry is listed as “ND (^ <4%)”, the AN result was “ND (^ <4%)”, the AP result is on record as “ND (^ <4%)” and the HL entry was “ND (^ <4%)”. In addition, the PS result was “ND (^ <4%)”, the SH entry is “ND (^ <4%)” and the UK result is reported as “ND (^ <4%)”. For the same compound, the “MED (minimal effective dose)” value under setting [2] stood at 3.0 mpk. Moreover, under “hydrochloride, 3 mg/kg”, the AD entry is “+++ (≥49%)”, the AX entry is recorded as “ND (^ <4%)”, the CE result was “ND (^ <4%)” and the MS result is recorded as “ND (^ <4%)”.

In the case of `CNC1COc2cscc2C1` (single isomer, unassigned) [Compound 51, N-methyl-3,4-dihydro-2H-thieno[3,4-b]pyran-3-amine hydrochloride], the AD entry is on record as “ND (^ <4%)”, the AG result is reported as “ND (^ <4%)”, the AN result is given as “ND (^ <4%)” and the CE entry is on record as “ND (^ <4%)”. Moreover, the HL entry was “ND (^ <4%)”, the MS entry is “ND (^ <4%)”, the PS result is “ND (^ <4%)” and the SH entry is reported as “ND (^ <4%)”. Moreover, the UK entry is on record as “+ (≥4%)”. Moreover, the “MED (minimal effective dose)” value under setting [2] is over 10 mpk. For the same compound, under “hydrochloride, 3 mg/kg”, the AP entry is listed as “ND (^ <4%)” and the AX entry is given as “ND (^ <4%)”.

For the compound `CNC1COc2cscc2C1` (single isomer, unassigned) [Compound 52, N-methyl-3,4-dihydro-2H-thieno[3,4-b]pyran-3-amine hydrochloride], the AD result is “ND (^ <4%)”, the AG result is listed as “ND (^ <4%)”, the AN result is “ND (^ <4%)” and the CE result is “ND (^ <4%)”. Besides, the HL entry was “ND (^ <4%)”, the MS entry was “ND (^ <4%)”, the PS result is “ND (^ <4%)” and the SH result is “ND (^ <4%)”. Also, the UK entry is recorded as “+ (≥4%)”. For the same compound, the “MED (minimal effective dose)” value under setting [2] is reported as 3.0 mpk. For the same compound, where the note is “hydrochloride, 3 mg/kg”, the AP result is recorded as “+++ (≥49%)” and the AX entry is “++ (≥24%)”.

In the case of `CNC1CCc2csc(Cl)c2C1` (single isomer, unassigned) [Compound 55, 3-chloro-N-methyl-4,5,6,7-tetrahydro-2-benzothiophen-5-amine hydrochloride], the AG entry is recorded as “ND (^ <4%)”, the AP result is given as “++ (≥24%)”, the CE entry is “ND (^ <4%)” and the HL result was “ND (^ <4%)”. For the same compound, the MS result was “ND (^ <4%)”, the PS result is listed as “ND (^ <4%)”, the SH entry is “ND (^ <4%)” and the UK result is given as “ND (^ <4%)”. Moreover, the minimal effective dose (usually the lowest level tested that produced the effect sought) (Mus musculus, ip, dose having 45% or more total activity in SmartCube, i.p., if only one dose was tested, that dose is shown, read-out: MED (minimal effective dose)) was determined as 1 mg/kg. Under “hydrochloride, 3 mg/kg”, the AD result is given as “++ (≥24%)”, the AN entry is recorded as “ND (^ <4%)” and the AX result was “+ (≥4%)”.

Turning to `CNC1CCc2csc(Cl)c2C1` (single isomer, unassigned) [Compound 56, 3-chloro-N-methyl-4,5,6,7-tetrahydro-2-benzothiophen-5-amine hydrochloride], the AG entry is recorded as “ND (^ <4%)”, the AP entry is “++ (≥24%)”, the CE result is “ND (^ <4%)” and the HL result is “ND (^ <4%)”. In addition, the MS entry is “ND (^ <4%)”, the PS result was “ND (^ <4%)”, the SH entry was “ND (^ <4%)” and the UK entry is listed as “ND (^ <4%)”. For the same compound, the “MED (minimal effective dose)” value under setting [1] is listed as 1.0 mpk. For the same compound, for the setting “hydrochloride, 3 mg/kg”, the AD entry is recorded as “ND (^ <4%)”, the AN entry is “+ (≥4%)” and the AX entry is “++ (≥24%)”.
